Source: ChEMBL document CHEMBL3217491, “Design, synthesis and biological evaluation of imidazopyridine/pyrimidine-chalcone derivatives as potential anticancer agents” (2010)
Activity calls are given as the source filed them. No cut-off for these calls is given here.

Assays:
PC-3 = assay: Growth inhibition of human PC3 cells after 48 hrs by SRB assay; format: functional; conditions: PC-3, 48 h
MCF7 [1] = assay: Growth inhibition of human MCF7 cells after 48 hrs by SRB assay; format: functional; conditions: MCF7, 48 h
MDA-MB-231 = assay: Growth inhibition of human MDA-MB-231 cells after 48 hrs by SRB assay; format: functional; conditions: MDA-MB-231, 48 h
[2] = Growth inhibition of human BT549 cells after 48 hrs by SRB assay; format: functional; conditions: BT-549, 48 h
T47D = assay: Growth inhibition of human T47D cells after 48 hrs by SRB assay; format: functional
[3] = Growth inhibition of human LOXIMVI cells after 48 hrs by SRB assay; format: functional; conditions: LOX IMVI
Malme-3M = assay: Growth inhibition of human MALME-3M cells after 48 hrs by SRB assay; format: functional
M14 = assay: Growth inhibition of human M14 cells after 48 hrs by SRB assay; format: functional; conditions: M14, 48 h
MDA-MB-435 = assay: Growth inhibition of human MDA-MB-435 cells after 48 hrs by SRB assay; format: functional; conditions: MDA-MB-435, 48 h
SK-MEL-2 = assay: Growth inhibition of human SK-MEL-2 cells after 48 hrs by SRB assay; format: functional; conditions: SK-MEL-2, 48 h
SK-MEL-5 = assay: Growth inhibition of human SK-MEL-5 cells after 48 hrs by SRB assay; format: functional; conditions: SK-MEL-5, 48 h
[4] = Growth inhibition of human UACC62 cells after 48 hrs by SRB assay; format: functional; conditions: UACC-62, 48 h
[5] = Growth inhibition of human UACC257 cells after 48 hrs by SRB assay; format: functional; conditions: UACC-257, 48 h
MCF7 [6] = assay: Cell cycle arrest in human MCF7 cells assessed as accumulation at G0/G1 phase at 4 uM after 24 hrs by propidium iodide staining-based flow cytometry (reference value: 64.04%); format: functional
MCF7 [7] = assay: Cell cycle arrest in human MCF7 cells assessed as accumulation at S phase at 4 uM after 24 hrs by propidium iodide staining-based flow cytometry (reference value: 20.17%); format: functional
MCF7 [8] = assay: Induction of cell cycle arrestin human MCF7 cells assessed as downregulation of cyclin D1 protein expression at 4 uM by Western blot analysis; format: functional, cell-based
MCF7 [9] = assay: Induction of cell cycle arrestin human MCF7 cells assessed as downregulation of CDK2 protein expression at 4 uM by Western blot analysis; format: functional, cell-based
MCF7 [10] = assay: Induction of cell cycle arrestin human MCF7 cells assessed as downregulation of cyclin E protein expression at 4 uM by Western blot analysis; format: functional, cell-based
MCF7 [11] = assay: Induction of cell cycle arrestin human MCF7 cells assessed as downregulation of cyclin A protein expression at 4 uM by Western blot analysis; format: functional, cell-based
MCF7 [12] = assay: Induction of apoptosis in human MCF7 cells assessed as of p21 protein expression at 4 uM by Western blot analysis relative to control; format: functional, cell-based
MCF7 [13] = assay: Induction of apoptosis in human MCF7 cells expressing P21 promoter -145/+8 with luciferase gene assessed as upregulation of p21 protein expression at 4 uM by Western blot analysis relative to control; format: functional, cell-based
MCF7 [14] = assay: Induction of apoptosis in human MCF7 cells assessed as increase in TNFR1 protein level at 4 uM by Western blot analysis relative to control; format: functional, cell-based
CCRF-CEM = assay: Growth inhibition of human CCRF-CEM cells after 48 hrs by SRB assay; format: functional
K562 = assay: Growth inhibition of human K562 cells after 48 hrs by SRB assay; format: functional; conditions: K562, 48 h
SR = assay: Growth inhibition of human SR cells after 48 hrs by SRB assay; format: functional
RPMI-8226 = assay: Growth inhibition of human RPMI8226 cells after 48 hrs by SRB assay; format: functional; conditions: RPMI-8226, 48 h
[15] = Growth inhibition of human EKVX cells after 48 hrs by SRB assay; format: functional
HOP-62 = assay: Growth inhibition of human HOP62 cells after 48 hrs by SRB assay; format: functional; conditions: HOP-62, 48 h
NCI-H226 = assay: Growth inhibition of human NCI-H226 cells after 48 hrs by SRB assay; format: functional; conditions: NCI-H226, 48 h
NCI-H23 = assay: Growth inhibition of human NCI-H23 cells after 48 hrs by SRB assay; format: functional; conditions: NCI-H23, 48 h
NCI-H322M = assay: Growth inhibition of human NCI-H322M cells after 48 hrs by SRB assay; format: functional
NCI-H460 = assay: Growth inhibition of human NCI-H460 cells after 48 hrs by SRB assay; format: functional; conditions: NCI-H460, 48 h
NCI-H522 = assay: Growth inhibition of human NCI-H522 cells after 48 hrs by SRB assay; format: functional; conditions: NCI-H522, 48 h
[16] = Growth inhibition of human HCC2998 cells after 48 hrs by SRB assay; format: functional; conditions: HCC 2998, 48 h
[17] = Growth inhibition of human HCT15 cells after 48 hrs by SRB assay; format: functional; conditions: HCT-15, 48 h
HT-29 = assay: Growth inhibition of human HT-29 cells after 48 hrs by SRB assay; format: functional; conditions: HT-29, 48 h
KM12 = assay: Growth inhibition of human KM12 cells after 48 hrs by SRB assay; format: functional; conditions: KM12, 48 h
SF-268 = assay: Growth inhibition of human SF268 cells after 48 hrs by SRB assay; format: functional; conditions: SF-268, 48 h
[18] = Growth inhibition of human SF539 cells after 48 hrs by SRB assay; format: functional; conditions: SF-539, 48 h
[19] = Growth inhibition of human OVCAR4 cells after 48 hrs by SRB assay; format: functional; conditions: OVCAR-4, 48 h
[20] = Growth inhibition of human OVCAR8 cells after 48 hrs by SRB assay; format: functional; conditions: OVCAR-8, 48 h
[21] = Growth inhibition of human NCI-ADR-RES cells after 48 hrs by SRB assay; format: functional
SK-OV-3 = assay: Growth inhibition of human SKOV3 cells after 48 hrs by SRB assay; format: functional; conditions: SK-OV-3, 48 h
786-0 = assay: Growth inhibition of human 786-0 cells after 48 hrs by SRB assay; format: functional; conditions: 786-0, 48 h
A498 = assay: Growth inhibition of human A498 cells after 48 hrs by SRB assay; format: functional; conditions: A498, 48 h
ACHN = assay: Growth inhibition of human ACHN cells after 48 hrs by SRB assay; format: functional
CAKI-1 = assay: Growth inhibition of human Caki1 cells after 48 hrs by SRB assay; format: functional; conditions: CAKI-1, 48 h
SN12C = assay: Growth inhibition of human SN12C cells after 48 hrs by SRB assay; format: functional
TK-10 = assay: Growth inhibition of human TK10 cells after 48 hrs by SRB assay; format: functional; conditions: TK-10, 48 h
[22] = Growth inhibition of human UO31 cells after 48 hrs by SRB assay; format: functional; conditions: UO-31, 48 h

`COc1ccc(C(=O)/C=C/c2c(C(F)(F)F)nc3ccccn23)cc1OC` showed a GI50 (PC-3) of 2.73 µM, a GI50 (MCF7 [1]) of 0.56 µM and a GI50 (MDA-MB-231) of 3.06 µM. The GI50 [2] was 2.59 µM, the GI50 (T47D) was 1.43 µM and the GI50 [3] was 0.95 µM. For the same molecule, the GI50 (Malme-3M) was 6.69 µM, the GI50 (M14) was 3.63 µM and the GI50 (MDA-MB-435) was 2.04 µM. For the same molecule, the GI50 (SK-MEL-2) was 1.72 µM, the GI50 (SK-MEL-5) was 1.63 µM and the GI50 [4] was 2.22 µM. For the same molecule, the GI50 [5] was 0.62 µM, the Activity (MCF7 [6]) was 97.86% and the Activity (MCF7 [7]) was 1.83%. For the same molecule, the inhibition (MCF7 [8]) was “Active”, the inhibition (MCF7 [9]) was “Active” and the inhibition (MCF7 [10]) was “Active”. The inhibition (MCF7 [11]) was “inactive”, the Activity (MCF7 [12]) was “inactive” and the Activity (MCF7 [13]) was “Active”. The Activity (MCF7 [14]) was “Active”, the GI50 (CCRF-CEM) was 0.44 µM and the GI50 (K562) was 0.36 µM. The GI50 (SR) was 0.44 µM, the GI50 (RPMI-8226) was 0.29 µM and the GI50 [15] was 3.74 µM. The GI50 (HOP-62) was 3.01 µM, the GI50 (NCI-H226) was 4.55 µM and the GI50 (NCI-H23) was 2.37 µM. For the same molecule, the GI50 (NCI-H322M) was 3.15 µM, the GI50 (NCI-H460) was 0.68 µM and the GI50 (NCI-H522) was 5.73 µM. The GI50 [16] was 0.48 µM, the GI50 [17] was 1.13 µM and the GI50 (HT-29) was 1.48 µM. It also gave a GI50 (KM12) of 0.57 µM, a GI50 (SF-268) of 1.57 µM and a GI50 [18] of 1.65 µM. For the same molecule, the GI50 [19] was 2.49 µM, the GI50 [20] was 1.31 µM and the GI50 [21] was 1.57 µM. The GI50 (SK-OV-3) was 2.49 µM, the GI50 (786-0) was 2.87 µM and the GI50 (A498) was 2.45 µM. The GI50 (ACHN) was 2.85 µM, the GI50 (CAKI-1) was 2.5 µM and the GI50 (SN12C) was 1.91 µM. For the same molecule, the GI50 (TK-10) was 3.78 µM and the GI50 [22] was 1.44 µM.
